From publication PMC3509222 (Molecular Microbiology, 2012)

Target: T1, full-length SgmT (His6-SgmT) (Myxococcus xanthus, UniProt Q1D3G7)
T1 sequence (Q1D3G7 1-836): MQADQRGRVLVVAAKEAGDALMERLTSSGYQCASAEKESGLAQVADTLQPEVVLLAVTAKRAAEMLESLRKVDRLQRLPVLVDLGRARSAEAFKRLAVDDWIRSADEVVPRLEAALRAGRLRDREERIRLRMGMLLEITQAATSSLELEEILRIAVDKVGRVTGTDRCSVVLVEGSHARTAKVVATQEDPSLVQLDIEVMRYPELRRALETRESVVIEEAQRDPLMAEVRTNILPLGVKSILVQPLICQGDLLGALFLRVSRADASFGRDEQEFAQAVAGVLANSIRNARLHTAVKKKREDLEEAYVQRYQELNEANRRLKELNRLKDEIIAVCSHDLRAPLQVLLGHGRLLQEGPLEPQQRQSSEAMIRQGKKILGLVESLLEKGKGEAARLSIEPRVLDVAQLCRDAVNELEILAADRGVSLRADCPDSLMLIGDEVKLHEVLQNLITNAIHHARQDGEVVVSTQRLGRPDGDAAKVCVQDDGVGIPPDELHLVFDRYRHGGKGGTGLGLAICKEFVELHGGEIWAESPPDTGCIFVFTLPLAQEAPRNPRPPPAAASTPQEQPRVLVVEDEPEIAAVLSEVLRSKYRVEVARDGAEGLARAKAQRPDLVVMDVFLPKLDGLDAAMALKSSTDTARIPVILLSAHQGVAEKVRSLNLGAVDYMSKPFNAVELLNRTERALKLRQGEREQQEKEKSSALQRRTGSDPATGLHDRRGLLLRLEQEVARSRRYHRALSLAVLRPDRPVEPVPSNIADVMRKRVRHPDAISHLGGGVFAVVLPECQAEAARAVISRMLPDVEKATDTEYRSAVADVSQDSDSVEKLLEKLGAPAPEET
Details: labelled compound; 1.0 mM ATP, 10 mM MgCl2, Tris pH 8.0, 30°C, 30 min

Structure (SMILES): Nc1ncnc2c1ncn2[C@@H]1O[C@H](COP(=O)(O)OP(=O)(O)OP(=O)(O)O)[C@@H](O)[C@H]1O [[γ-^32P]-ATP]
- autophosphorylation, SDS-PAGE and phosphorimaging: Autophosphorylation of full-length SgmT and phosphotransfer to DigR
